Where “and” joins values, the source holds several entries; their conditions need not be identical. Equal values may be shown once. Where no end group is shown, it is not given here.
Legend:
CD95/PLCγ1 interaction = molecular target: T1, CD95/PLCγ1 interaction (Homo sapiens, UniProt P19174); assay: Renilla luciferase protein-fragment complementation assay (PCA), CD95-CID/PLCγ1-SH3; format: cell-based; conditions: PCA in HEK cells
T1 construct: The PLCγ1-SH3 domain (aa 790-851) (C); expressed in transfected cells; host or cells: HEK293T
T1 sequence (P19174 790-851): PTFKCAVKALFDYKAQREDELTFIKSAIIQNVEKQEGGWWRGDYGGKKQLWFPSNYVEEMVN
Description: FIG. 1. […] A. Schematic representation of the protein-fragment complementation assay used with CD95-CID or -DD fused to F2 and PLCγ1-SH3 or FADD-DD fused to F1 to identify inhibitors from the Prestwick library. The Renilla luciferase enzyme was divided into amino-terminal and carboxy-terminal fragments (yellow domains) and fused to the indicated domains. B. Compounds from the Prestwick library were tested against CD95/PLCγ1 or CD95/FADD PCA. […] Inhibition of CD95/FADD interaction is also assessed.
Light emission indicates refolding of the luciferase and reconstitution of enzyme activity through protein/protein interactions. […] Data represent means±SD of three independent experiments. […] Then, the indicated peptides fused with or without the cell-penetrating domain TAT were incubated at the indicated concentrations for 4 hrs and luminescence was assessed. Data represent means±SD of three independent experiments. […].
HEK293T cells were electroporated with 5 μg of DNA using BTM-830 electroporation generator (BTX Instrument Division, Harvard Apparatus) with 10 μg of DNA. Transfected cells were cultured for 24 hrs prior to protein complementation assay analyses as previously described (17). Briefly, transfected cells (10^6) were washed, resuspended in 100 μl PBS and deposited in OptiPlate-96 (PerkinElmer, Waltham, Mass., USA). Coelenterazine-h (5 μM, Sigma) was injected to each well and renilla luciferase activity was monitored for the first 10 seconds using Infinite200Pro (Tecan, Männedorf, Switzerland).
A peptide consisting of the cell-penetrating domain of TAT fused to CID (TAT-CID) binds the SH3 domain of PLCγ1 and thereby, prevents PLCγ1/CD95 interaction and the subsequent induction of the Ca^2+ response (16). […] Briefly, the Renilla luciferase enzyme was divided into two fragments (F1 and F2 fragments). […] Interaction of CD95 with PLCγ1 or FADD allows the reconstitution of RLuc and subsequent light emission (FIG. 1A). The chemical Prestwick library was screened against these PCAs (FIG. 1B). […] These molecules are designated CID inhibitors or CIDINH.

CD95/FADD interaction = molecular target: T2, CD95/FADD interaction (Homo sapiens, UniProt P25445+Q13158); assay: Renilla luciferase protein-fragment complementation assay (PCA), CD95-DD/FADD-DD; format: cell-based; conditions: result in words; selectivity control
T2 construct: DD-CD95 (aa 210-303) fused to F2; the death domain of FADD (aa 80-210) (D) fused to F1; expressed in transfected cells; host or cells: HEK293T
T2 sequence (P25445 226-319): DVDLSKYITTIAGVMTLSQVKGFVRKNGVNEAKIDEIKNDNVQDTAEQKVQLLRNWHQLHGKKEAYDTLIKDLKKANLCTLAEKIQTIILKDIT
T2 sequence (Q13158 80-208): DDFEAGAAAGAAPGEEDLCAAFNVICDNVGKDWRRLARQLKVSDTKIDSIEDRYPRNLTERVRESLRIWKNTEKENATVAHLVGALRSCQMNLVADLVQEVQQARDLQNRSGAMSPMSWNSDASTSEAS
Excerpt: FIG. 1. Identification of chemical leads from the Prestwick library inhibiting the CD95/PLCγ1 interaction. A. Schematic representation of the protein-fragment complementation assay used with CD95-CID or -DD fused to F2 and PLCγ1-SH3 or FADD-DD fused to F1 to identify inhibitors from the Prestwick library. The Renilla luciferase enzyme was divided into amino-terminal and carboxy-terminal fragments (yellow domains) and fused to the indicated domains. B. Compounds from the Prestwick library were tested against CD95/PLCγ1 or CD95/FADD PCA. This library allowed us to select 34 hits based on their ability to inhibit CD95/PLCγ1 interaction (≥70% of signal inhibition) without altering CD95/FADD binding (ratio (CD95/PLCγ1 inhibition/CD95/FADD inhibition) ≥2). […] Inhibition of CD95/FADD interaction is also assessed.
A. CID-CD95 (aa 175-210) or DD-CD95 (aa 210-303) fused to F2 were co-transfected into HEK cells with the indicated domains of PLCγ1 (Ca^2+ response) or FADD (apoptosis) fused to F1. […] The inhibition of light emission for the indicated PPIs was assessed in cells incubated for the indicated times in the presence of TAT-CID (25 μM). […] Then, the indicated peptides fused with or without the cell-penetrating domain TAT were incubated at the indicated concentrations for 4 hrs and luminescence was assessed. […]

[1] = tested on: CD95-mediated Ca2+ signaling pathway in Tfh cells; assay: CD95-mediated Ca2+ response in Tfh cells; format: cell-based, human; conditions: Example 2; signal described for Th17 and circulating Tfh cells
[2] = tested on: Tfh-dependent B cell activation; assay: Tfh-dependent B-cell maturation co-culture (memory B cells with SEB-stimulated Tfh cells, s-CD95L); format: cell-based; conditions: preincubation of Tfh cells
[3] = tested on: lupus-prone mice (MRL Lpr/+); conditions: repeated injections; cited from earlier work

TAT-CID: peptide consisting of the CID (CD95 amino acids 175 to 210) conjugated to the cell-penetrating domain of TAT (KRKEVQKTCRKHRKENQGSHESPTLNPETVAINLSD; not fully specified (N-terminus); also: conjugated to TAT cell-penetrating domain, site not given here)
IC50 (CD95/PLCγ1 interaction; peptides incubated for 4 hours, read-out: IC50, disruption of CD95/PLCγ1 interaction by peptides): 10.8 µM and 11.5 µM | time course of inhibition of CD95/PLCγ1 (CD95/PLCγ1 interaction; TAT-CID 25 μM): increased in a time dependent manner | effect on CD95/FADD interaction (CD95/FADD interaction): failed to alter | effect on sCD95L-induced Ca2+ response [1]: abrogated | effect on Tfh-dependent B cell activation [2]: blocks | effect on clinical symptoms [3]: alleviate clinical symptoms | effect on endothelial transmigration of Th17 cells in vivo [3]: block
